This note sets out measurements from EPA's ToxValDB 9.5 (doi:10.2903/j.efsa.2010.1711).

Values joined by “and” are separate entries in the source; they are usually repeats but may differ in a detail not shown here. Equal entries are not always repeated.

The subject of one series is Bibionidae. To be noted: chronic/long-term; duration: 28 days; development.
Another series relates to Daphnia magna. To be noted: chronic/long-term; duration: 21 days; reproduction.
The next series concerns Apis mellifera. The note with it: acute; duration: 96 hours; oral; unspecified; mortality.
For a further series, the system named is Tagia sp. The note with it: acute; duration: 14 days; mortality.
For a further series, the system named is Typhlodromus pyri. Briefly: LR50; higher = less toxic. The note with it: acute; duration: 7 days; mortality.
A further series relates to Aphidius rhopalosiphi. The series is described as follows: LR50; higher = less toxic. To be noted: acute; duration: 48 hours; mortality.

What is called NOAEL is the highest dose or exposure tested at which no adverse effect was seen. Consider `CC(C)([CH2][Sn]([CH2]C(C)(C)c1ccccc1)([CH2]C(C)(C)c1ccccc1)[O][Sn]([CH2]C(C)(C)c1ccccc1)([CH2]C(C)(C)c1ccccc1)[CH2]C(C)(C)c1ccccc1)c1ccccc1` [Fenbutatin oxide], for which the NOEC was over 1000 mg/kg in the series with Bibionidae; 0.004 mg/L with Daphnia magna; 14.4 mg/kg-day in the series with Colinus virginianus (reproduction developmental); 16.8 mg/kg-day in the series with Anas platyrhynchos (reproductive); 0.0002 mg/L in the series with Oncorhynchus mykiss (chronic/long-term, duration: 62 days, growth). Also, the LC50 in the series on Colinus virginianus (acute, oral, diet, mortality) was over 1610 mg/kg-day; in the series on Anas platyrhynchos (short-term, oral, feed, mortality) it was over 968 mg/kg-day; in the series on Oncorhynchus mykiss (acute, duration: 96 hours, mortality), 1.14 ng/mL; with Tagia sp., over 1000 mg/kg. Besides, the LD50 in the series with Colinus virginianus (acute, oral, mortality) was over 2510 mg/kg-day; in the series on Rattus norvegicus (acute, oral, F, mortality), over 3000 mg/kg-day; with Apis mellifera, over 200 µg/piece. The NOAEC in the series with Rattus norvegicus (acute, inhalation, mortality) was 5.13 mg/kg-day. Moreover, the NOAEL is 5 mg/kg-day with Rattus norvegicus (chronic, duration: 2 years, clinical signs); 4.5 mg/kg-day and 10 mg/kg-day in the series on Rattus norvegicus (reproduction developmental, body weight). For the same compound, the results for the LR50 in the series on Typhlodromus pyri and in the series with Aphidius rhopalosiphi were 468 g/ha and over 85.9 g/ha, respectively.
